# Patent US4837228A, “Antiinflammatory and antimicrobial compounds and compositions” (The University of Mississippi, priority 1982, dated 1989)
# Where “and” joins values, the source holds several entries; their conditions need not be identical. Identical values can stand only once. Like-named read-outs stand apart in the source and are kept apart here.
# Tests used:
# Type in all cases: cell-based
# Candida albicans [1] = assay: agar well diffusion assay, C. albicans; settings: from edge of agar well
# Method: (§1) Both qualitative and quantitative screens were performed. Qualitative screening was accomplished using the agar well diffusion assay technque while quantitative screening was accomplished by the two-fold (broth) serial dilution method to determine the minimum inhibitory concentration (MIC). Innoculation was accomplished with one loop-full of a 1:10 dilution of the 24-hour-old broth culture, (fungal cultures and M.smegmatis more often required 48 to 72 hours of incubation) of the test organisms in sterile water. Streptomycin sulfate was used as a positive control for antibacterial activity while amphitericin B was used as an antifungal positive control. Organisms utilized in the screens included gram-positive, gram-negative, and acid-fast bacteria as well as different types of fungi. […] An intermediate type activity is seen where R is hydrogen. However, where R is lengthened up to C15 a decrease in activity was noted. Total saturation of the two double bonds in the compounds having a methyl side chain lead, in most cases, to an increase in both antifungal and antibacterial activity.
# Saccharomyces cerevisiae = assay: agar well diffusion assay, S. cerevisiae; settings: from edge of agar well
# Method: as §1
# Bacillus subtilis [2] = assay: agar well diffusion assay, B. subtilis; settings: from edge of agar well
# Method: as §1
# Mycobacterium smegmatis [3] = assay: agar well diffusion assay, M. smegmatis; settings: from edge of agar well
# Method: as §1
# Staphylococcus aureus [4] = assay: agar well diffusion assay, S. aureus; settings: from edge of agar well
# Method: as §1
# [5] = test system: Trichophyton mentagrophytes; assay: agar well diffusion assay, T. mentagrophytes; settings: one entry across 48 hr and 72 hr
# Method: as §1
# Aspergillus niger = assay: agar well diffusion assay, A. niger; settings: from edge of agar well
# Method: as §1
# Escherichia coli = assay: agar well diffusion assay, E. coli; settings: from edge of agar well
# Method: as §1
# Pseudomonas aeruginosa = assay: agar well diffusion assay, Ps. aeruginosa; settings: from edge of agar well
# Method: as §1
# Mycobacterium smegmatis [6] = assay: MIC, two-fold (broth) serial dilution, M. smegmatis
# Method: as §1
# Candida albicans [7] = assay: MIC, two-fold (broth) serial dilution, C. albicans; settings: Candida albicans, read-out: MIC
# Method: as §1
# Bacillus subtilis [8] = assay: MIC, two-fold (broth) serial dilution, B. subtilis
# Method: as §1
# [9] = test system: erythrocyte (heat-induced hemolysis); assay: erythrocyte membrane stabilization assay (heat-induced erythrocyte hemolysis); settings: Erythrocyte
# Method: The published procedure (Proc. Soc. Exp. Biol. Med. 1967; 125; 837-842 Brow et al) for in vitro assay for antiinflammatory agents based on stabilization of erythrocytes was used. All compounds were prepared for administration by dissolving in physiologic saline or suspending in 2% ethanol in saline and the pH adjusted to 7.4 The concentrations tested in one series are given in Table 8. Aspirin (ASA) and phenylbutazone were used as positive controls for comparison of activity. Tests using this procedure were successfully and repeatedly using either 40% or 20% RBC suspensions.
# Staphylococcus aureus [10] = assay: MIC, two-fold (broth) serial dilution, S. aureus
# Method: as §1
# [11] = 24 hr, listed as Streptomycin-SO4
# [12] = 48 hr, listed as Streptomycin-SO4
smiles,measurement,setting,value
"CCCCCc1cc(O)c2c(c1)OC(C)(CCCC(C)C)CC2 (stereo not shown) [CBC (X), 2-methyl-2(4'-methyl-pentyl)-5-hydroxy-7-pentyl chroman]",width of inhibition zone,Candida albicans [1]; 48 hr,2. mm
same,width of inhibition zone,Candida albicans [1]; 72 hr,3. mm
same,width of inhibition zone,Saccharomyces cerevisiae; 48 hr,7. mm
same,width of inhibition zone,Saccharomyces cerevisiae; 72 hr,7. mm
same,width of inhibition zone,Bacillus subtilis [2]; 24 hr,4.0 mm
same,width of inhibition zone,Bacillus subtilis [2]; 48 hr,4.0 mm
same,width of inhibition zone,Mycobacterium smegmatis [3]; 24 hr,7. mm
same,width of inhibition zone,Mycobacterium smegmatis [3]; 48 hr,7. mm
same,width of inhibition zone,Staphylococcus aureus [4]; 24 hr,13. mm
same,width of inhibition zone,Staphylococcus aureus [4]; 48 hr,13. mm
same,agar well diffusion result in words,[5],No growth
same,width of inhibition zone,Aspergillus niger; 48 hr,1. mm
same,width of inhibition zone,Aspergillus niger; 72 hr,1. mm
same,width of inhibition zone,Escherichia coli; 24 hr,5. mm
same,width of inhibition zone,Escherichia coli; 48 hr,5. mm
same,width of inhibition zone,Pseudomonas aeruginosa; 24 hr,1. mm
same,width of inhibition zone,Pseudomonas aeruginosa; 48 hr,1. mm
"CCCCCc1cc(O)cc2c1C=CC(C)(CCC=C(C)C)O2 (stereo not shown) [Iso CBC (IX), 2-methyl-2(4'-methyl-pent-3'-enyl)-5-pentyl-7-hydroxy chromene]",MIC,"Mycobacterium smegmatis [6]; Mycolicibacterium smegmatis, 24 h, read-out: MIC",25 µg/mL
same,MIC,"Mycobacterium smegmatis [6]; Mycolicibacterium smegmatis, 48 h, read-out: MIC",25 µg/mL
same,MIC,Candida albicans [7]; 48 h,50 µg/mL
same,MIC,Candida albicans [7]; 72 h,100 µg/mL
same,MIC,"Bacillus subtilis [8]; Bacillus subtilis, 24 h, read-out: MIC",0.78 µg/mL
same,MIC,"Bacillus subtilis [8]; Bacillus subtilis, 48 h, read-out: MIC",3.12 µg/mL
same,inhibition at 100 µM,"[9]; read-out: inhibition of heat-induced erythrocyte hemolysis, Table 8, 1 × 10^-4 M",75%
"[H]/N=C(/N)N[C@H]1[C@H](O)[C@@H](O)[C@H](O[C@@H]2O[C@@H](C)[C@](O)(C=O)[C@H]2O[C@@H]2O[C@@H](CO)[C@H](O)[C@@H](O)[C@@H]2NC)[C@@H](N/C(N)=N\[H])[C@@H]1O [Streptomycin SO4, reference compound]",MIC,Mycobacterium smegmatis [6]; 24 hr,1.56 µg/mL
same,MIC,Mycobacterium smegmatis [6]; [11],1.56 µg/mL and 0.78 µg/mL
same,MIC,Mycobacterium smegmatis [6]; 48 hr,1.56 µg/mL
same,MIC,Mycobacterium smegmatis [6]; [12],1.56 µg/mL and 0.78 µg/mL
same,MIC,Staphylococcus aureus [10]; 24 hr,3.12 µg/mL
same,MIC,Staphylococcus aureus [10]; 48 hr,12.5 µg/mL and 6.25 µg/mL
same,MIC,Staphylococcus aureus [10]; [12],12.5 µg/mL and 25.0 µg/mL and 25 µg/mL
same,width of inhibition zone,Bacillus subtilis [2]; 24 hr,7. mm
same,width of inhibition zone,Bacillus subtilis [2]; [11],11. mm
same,width of inhibition zone,Bacillus subtilis [2]; 48 hr,8. mm
same,width of inhibition zone,Bacillus subtilis [2]; [12],10. mm
same,width of inhibition zone,Mycobacterium smegmatis [3]; 24 hr,20. mm
same,width of inhibition zone,Mycobacterium smegmatis [3]; 48 hr,22. mm
same,width of inhibition zone,Staphylococcus aureus [4]; 24 hr,9. mm
same,width of inhibition zone,Staphylococcus aureus [4]; [11],10. mm
same,width of inhibition zone,Staphylococcus aureus [4]; 48 hr,9. mm
same,width of inhibition zone,Staphylococcus aureus [4]; [12],10. mm
same,MIC,Bacillus subtilis [8]; 24 hr,3.12 µg/mL
same,MIC,Bacillus subtilis [8]; 48 hr,25 µg/mL
same,width of inhibition zone,Escherichia coli; 24 hr,2. mm
same,width of inhibition zone,Escherichia coli; [11],5. mm
same,width of inhibition zone,Escherichia coli; 48 hr,2. mm
same,width of inhibition zone,Escherichia coli; [12],5. mm
same,width of inhibition zone,Pseudomonas aeruginosa; 24 hr,3. mm
same,width of inhibition zone,Pseudomonas aeruginosa; [11],7. mm
same,width of inhibition zone,Pseudomonas aeruginosa; 48 hr,3. mm
same,width of inhibition zone,Pseudomonas aeruginosa; [12],6. mm
"Cc1ccc(C(=O)c2ccc(CC(=O)O)n2C)cc1 [Tolmetin, reference compound]",inhibition at 200 µM,"[9]; Table 9 Test 1 (20% RBC), 2.0 × 10^-4 M, read-out: percent inhibition of heat-induced erythrocyte hemolysis",27%
